System: mouse T-cells activated with ionomycin + PMA
Assay: T-cell proliferation assay (ionomycin plus PMA induced T-cell stimulation, tritiated thymidine uptake)
Type: cell-based, C57B1/6 mice
Procedure: The principle of this assay is to measure the proliferation of mouse T lymphocytes stimulated with the combination of ionomycin plus PMA. […] Cells were pelleted by centrifugation at 1500 rpm for 8 minutes. Contaminating red cells were removed by treating the pellet with ammonium chloride lysing buffer (GIBCO) for 2 minutes at 4°C. Cold medium was added and cells were again centrifuged at 1500 rpm for 8 minutes. T lymphocytes were then isolated by separation of the cell suspension on nylon wool columns as follows: Nylon wool columns were prepared by packing approximately 4 grams of washed and dried nylon wool into 20 ml plastic syringes. The columns were sterilized by autoclaving at 250°F for 30 minutes. Nylon wool columns were wetted with warm (37°C) culture medium and rinsed with the same medium. Washed spleen cells resuspended in warm medium were slowly applied to the nylon wool. The columns were then incubated in an upright position at 37°C for 1 hour. Non-adherent T lymphocytes were eluted from the columns with warm culture medium and the cell suspensions were spun as above. […] Ionomycin was added at 250 ng/ml and PMA at 10 ng/ml. The cell suspension was immediately distributed into 96 well flat-bottom microculture plates (Costar) at 200 µl/well. […] The proliferation of T lymphocytes was assessed by measurement of tritiated thymidine incorporation. After 44 hours of culturing, the cells were pulse-labelled with 2 µCi/well of tritiated thymidine (NEN, Cambridge, MA). After another 4 hours of incubation, cultures were harvested on glass fiber filters using a multiple sample harvester. Radioactivity of filter discs corresponding to individual wells was measured by standard liquid scintillation counting methods (Betacounter).

Compound | inhibition at 0.125 µg/mL (Mus musculus, T-cell, sample 125 ng/ml, no FK-506, tritiated thymidine uptake, harvest at 48 hours) [%] | inhibition at 0.25 µg/mL (Mus musculus, T-cell, sample 250 ng/ml, no FK-506, tritiated thymidine uptake, harvest at 48 hours) [%] | inhibition at 0.5 µg/mL (Mus musculus, T-cell, sample 500 ng/ml, no FK-506, tritiated thymidine uptake, harvest at 48 hours) [%] | inhibition at 1 µg/mL (Mus musculus, T-cell, sample 1000 ng/ml, no FK-506, tritiated thymidine uptake, harvest at 48 hours) [%] | % Inhibition + FK-506 (1.2 nM) (sample 125 ng/ml in presence of FK-506 1.2 nM, harvest at 48 hours) [%] | % Inhibition + FK-506 (1.2 nM) (sample 250 ng/ml in presence of FK-506 1.2 nM, harvest at 48 hours) [%] | inhibition at 0.01 µg/mL (Mus musculus, T-cell) [%] | inhibition at 0.0012 µM (Mus musculus, T-cell, read-out: % Inhibition + FK-506 (1.2 nM)) [%]
CCC1(O)C=C(C)CC(C)CC(OC)C2OC(O)(C(=O)C(=O)N3CCCCC3C(=O)OC(C(C)=CC3CCC(O)C(OC)C3)C(C)C(O)CC1=O)C(C)CC2OC (centres unmarked) [21-OH-590, C-21 hydroxylated FR-900520] | 0 | 0 | 0 | 0 | 94 | 63 |  | 
C=CC[C@@H]1/C=C(\C)C[C@H](C)C[C@H](OC)[C@H]2O[C@@](O)(C(=O)C(=O)N3CCCC[C@H]3C(=O)O[C@H](/C(C)=C/[C@@H]3CC[C@@H](O)[C@H](OC)C3)[C@H](C)[C@@H](O)CC1=O)[C@H](C)C[C@@H]2OC [FK-506] |  |  |  |  |  |  | 99 | 97

From patent EP0520554A2, “C-21 hydroxylated FK-506 antagonist” (MERCK & CO. INC., priority 1991, dated 1992)
